In patent publication US6204294A, “IL-8 receptor antagonists” (SmithKline Beecham Corporation, priority 1999, dated 2001):

Tested on: recombinant human IL-8 type β receptor (IL-8Rβ, Type II, permissive receptor)
Assay: Receptor binding assay, permissive model (IL-8b), [125I]IL-8 on CHO membranes
Conditions: recombinant IL-8Rβ CHO membranes; compound without an ionizable proton in the 2-position
Source text: [^125 I]IL-8 (human recombinant) was obtained from Amersham Corp., Arlington Heights, Ill., with specific activity 2000 Ci/mmol. Gro-α was obtained from NEN- New England Nuclear. All other chemicals were of analytical grade. High levels of recombinant human IL-8 type α and β receptors were individually expressed in Chinese hamster ovary cells as described previously (Holmes, et al., Science, 1991, 253, 1278). The Chinese hamster ovary membranes were homogenized according to a previously described protocol (Haour, et al., J Biol Chem., 249 pp 2195-2205 (1974)). Except that the homogenization buffer was changed to 10mM Tris-HCL, 1mM MgS04, 0.5mM EDTA (ethylene-diaminetetra-acetic acid), 1mMPMSF (α-toluenesulphonyl fluoride), 0.5 mg/L Leupeptin, pH 7.5. Membrane protein concentration was determined using Pierce Co. micro-assay kit using bovine serum albumin as a standard. All assays were performed in a 96-well micro plate format. Each reaction mixture contained ^125 I IL-8 (0.25 nM) or ^125 I Gro-α and 0.5 μg/mL of IL-8Rα or 1.0 μg/mL of IL-8Rβ membranes in 20 mM Bis-Trispropane and 0.4 mM Tris HCl buffers, pH 8.0, containing 1.2 mM MgSO4, 0.1 mM EDTA, 25 mM NaCl and 0.03% CHAPS. […] The filter was then dried and counted on the Betaplate liquid scintillation counter. […]

- activity in the permissive model (IL-8b) IL-8 receptor inhibition assay, result in words: inactive
SMILES: C=CCOc1cc(C#N)ccc1NC(=NC#N)Nc1ccccc1Br [N-(2-Allyloxy-4-cyano-phenyl)-N'-(2-bromophenyl)-N"-cyanoguanidine]
